One assay concerns the target Cathepsin D (Homo sapiens, UniProt P07339). The experiment in a line: Inhibition of human liver cathepsin D using DABCYL-Glu-Arg-Nle-Phe-Leu-Ser-Phe-Pro-EDANS as substrate by FRET assay.
Assay [1] deals with T1, Plasmepsin II (Plasmodium falciparum, UniProt P46925). The experiment in a line: Inhibition of Plasmodium falciparum plasmepsin 2 using DABCYL-Glu-Arg-Nle-Phe-Leu-Ser-Phe-Pro-EDANS as substrate by FRET assay.
The target of assay [2] is T1, Plasmepsin II. In words: Inhibition of Plasmodium falciparum plasmepsin 2 preincubated for 30 mins followed by DABCYL-Glu-Arg-Nle-Phe-Leu-Ser-Phe-Pro-EDANS addition measured every minute for 8 to 15 mins by FRET assay.
Assay [3] addresses T1, Plasmepsin II. The experiment in a line: Inhibition of Plasmodium falciparum plasmepsin 2 using Dabcyl-ERNIef:LSFP-EDANS as substrate incubated for 40 mins by FRET assay.
In assay [4] the target is T1, Plasmepsin II. The experiment in a line: Inhibition of Plasmodium falciparum plasmepsin 2 by FRET assay.
Assay [5] has as its target T2, Plasmepsin 4 (Plasmodium falciparum, UniProt Q17SB2). In words: Inhibition of Plasmodium falciparum plasmepsin 4 by FRET assay.
In assay [6] the target is T1, Plasmepsin II. In words: Inhibition of Plasmodium falciparum plasmepsin 2 incubated for 10 mins followed by DABCYL-Glu-Arg-Nle-Phe-Leu-Ser-Phe-Pro-EDANS addition and measured after 30 mins by fluorescence method.
In assay [7] the target is T2, Plasmepsin 4. The experiment in a line: Inhibition of Plasmodium falciparum plasmepsin 4 using fluorescently labeled peptide substrate by fluorescence method.
Assay [8] concerns the target T1, Plasmepsin II. The experiment in a line: Inhibition of Plasmodium falciparum plasmepsin 2 using fluorescently labeled peptide substrate by fluorescence method.

T1 sequence (P46925 whole entry): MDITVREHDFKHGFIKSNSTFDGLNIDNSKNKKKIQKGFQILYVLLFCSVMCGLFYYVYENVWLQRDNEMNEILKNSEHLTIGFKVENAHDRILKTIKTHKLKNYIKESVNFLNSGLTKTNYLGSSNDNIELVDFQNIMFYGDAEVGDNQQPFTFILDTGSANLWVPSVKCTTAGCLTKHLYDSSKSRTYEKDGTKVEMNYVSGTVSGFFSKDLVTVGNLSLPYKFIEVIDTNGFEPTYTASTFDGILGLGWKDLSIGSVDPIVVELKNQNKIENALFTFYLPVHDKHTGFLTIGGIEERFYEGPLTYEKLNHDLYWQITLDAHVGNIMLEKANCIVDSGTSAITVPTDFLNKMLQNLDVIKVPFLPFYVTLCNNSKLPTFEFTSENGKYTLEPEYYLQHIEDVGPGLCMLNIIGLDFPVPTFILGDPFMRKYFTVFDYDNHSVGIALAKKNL
Chain of Cathepsin D (P07339 65-162 limits assumed): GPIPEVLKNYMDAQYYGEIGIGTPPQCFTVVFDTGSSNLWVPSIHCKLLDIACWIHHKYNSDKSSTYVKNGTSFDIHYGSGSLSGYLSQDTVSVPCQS
Chain of Cathepsin D (P07339 169-412 limits assumed): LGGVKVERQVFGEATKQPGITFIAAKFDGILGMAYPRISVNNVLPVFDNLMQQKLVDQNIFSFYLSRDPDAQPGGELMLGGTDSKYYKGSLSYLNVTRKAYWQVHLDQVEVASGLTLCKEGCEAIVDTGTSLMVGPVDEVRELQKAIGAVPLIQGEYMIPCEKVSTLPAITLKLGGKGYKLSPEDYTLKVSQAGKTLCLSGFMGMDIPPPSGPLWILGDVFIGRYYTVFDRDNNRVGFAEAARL
T2 sequence (Q17SB2 whole entry): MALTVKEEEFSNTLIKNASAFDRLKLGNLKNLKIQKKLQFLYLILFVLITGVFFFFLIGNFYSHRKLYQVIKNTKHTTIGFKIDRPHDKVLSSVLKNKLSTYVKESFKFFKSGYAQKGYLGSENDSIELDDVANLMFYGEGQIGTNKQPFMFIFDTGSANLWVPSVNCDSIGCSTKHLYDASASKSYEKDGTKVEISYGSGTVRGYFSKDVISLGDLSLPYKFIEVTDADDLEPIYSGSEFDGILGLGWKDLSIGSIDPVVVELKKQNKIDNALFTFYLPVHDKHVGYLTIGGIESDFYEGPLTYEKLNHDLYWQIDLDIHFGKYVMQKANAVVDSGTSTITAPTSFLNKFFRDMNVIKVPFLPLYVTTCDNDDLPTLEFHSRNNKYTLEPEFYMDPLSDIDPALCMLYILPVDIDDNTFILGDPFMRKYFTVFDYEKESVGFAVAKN

As to `COc1ccccc1C(=O)NN`, the IC50 against Cathepsin D and at Plasmepsin II [1] was 1000 to 2500 nM in each case.
Consider `CCN(CC)CCc1nnn(-c2ccc(C)cc2)c1-c1ccc(-c2ccc(OC)cc2)cc1`, for which the IC50 on Plasmepsin II [2] is over 200000 nM.
In the case of `CC(=O)N1CC2CC(c3ccc(CCOc4cccc(Br)c4)cc3)=C(C(=O)N(C)CCc3ccccc3)C(C1)N2` (centres undefined), the IC50 against Plasmepsin II [3] lay within 10 to 100 nM.
On to `c1ccc2c(CCOc3cc4c(cc3CCCSc3nc5ccccc5s3)C3CCC4N3)cccc2c1` (centres undefined), for which the values for the IC50 on Plasmepsin II [4] and against Plasmepsin 4 [5] were 4000 nM and 33000 nM, respectively.
On to `O=C(Nc1ccc(Cl)c(C(F)(F)F)c1)Nc1cc(Cl)c(Oc2ccc(Cl)cc2)cc1S(=O)(=O)O`, for which the Ki at Plasmepsin II [6] fell in the range of 50 to 680 nM.
Regarding `O=C(Nc1ccc(Oc2ccc(Cl)cc2)c(Cl)c1)Nc1cc(Cl)c(Cl)cc1S(=O)(=O)O`, on Plasmepsin II [6], the Ki lay within 50 to 680 nM.
With `CCCCCCCCCc1ccc(S(=O)(=O)C2C3CCC(N3)C2NCc2ccc3ccccc3c2)cc1` (centres undefined), the IC50 against Plasmepsin 4 [7] was determined as 1360 nM; at Plasmepsin II [8], 150 nM.
Molecule `CC(=O)N1CC2CC(c3ccc(CCOc4ccccc4Cl)cc3)=C(C(=O)N(C)CCc3ccccc3)C(C1)N2` (centres undefined) yielded an IC50 against Plasmepsin II [3] of 100 to 10000 nM.
As for `CC(C)CCCCc1ccc(S(=O)(=O)C2C3CCC(N3)C2NCc2ccc3ccccc3c2)cc1` (centres undefined), the IC50 against Plasmepsin 4 [7] turned out to be 90 nM; on Plasmepsin II [8], 30 nM.
The molecule `CC(=O)N1CC2CC(c3ccc(CCOc4cccc(OC(F)(F)F)c4)cc3)=C(C(=O)N(C)CCc3ccccc3)C(C1)N2` (centres undefined) gave an IC50 against Plasmepsin II [3] of 10 to 100 nM.
Turning to `c1cc(NNc2ccncc2)ccn1`, the IC50 on Cathepsin D and against Plasmepsin II [1] was 1000 to 2500 nM in each case.
Turning to `O=C(C1=C(c2ccc(CCCOc3cc(F)ccc3Br)cc2)CCNC1)N(Cc1ccccc1Cl)C1CC1`, the IC50 at Plasmepsin II [3] was under 100 nM.
Regarding `O=C(Nc1cc(C(F)(F)F)cc(C(F)(F)F)c1)Nc1c(Oc2ccc(Cl)cc2)ccc(Cl)c1S(=O)(=O)O`, the Ki on Plasmepsin II [6] lay in the range of 50 to 680 nM.
Regarding `COc1cccc(OCCc2ccc(C3=C(C(=O)N(C)CCc4ccccc4)C4CN(C(C)=O)CC(C3)N4)cc2)c1` (centres undefined), the IC50 against Plasmepsin II [3] lay within 10 to 100 nM.
In turn, `CCCCCc1ccc(-n2nnc(CCN(CC)CC)c2-c2ccc(-c3ccc(OC)cc3)cc2)c(Cl)c1` gave an IC50 against Plasmepsin II [2] of 600 nM.
Regarding `CCCCCc1ccc(S(=O)(=O)C2C3CCC(N3)C2NCc2ccc3ccccc3c2)cc1` (centres undefined), the IC50 against Plasmepsin 4 [7] is 240 nM; at Plasmepsin II [8] it was 680 nM.
Regarding `O=S(=O)(c1ccc(CCCCC2CCCC2)cc1)C1C2CCC(N2)C1NCc1ccc2ccccc2c1` (centres undefined), the IC50 is 210 nM on Plasmepsin 4 [7] and 190 nM at Plasmepsin II [8].
In the case of `CCCCCCCCCCCc1ccc(S(=O)(=O)C2C3CCC(N3)C2NCc2ccc3ccccc3c2)cc1` (centres undefined), the IC50 on Plasmepsin 4 [7] came out at 5350 nM; against Plasmepsin II [8] it was 1950 nM.
For `CCCCCCCCCCCC(=O)N(Cc1ccc(-c2ccccc2)cc1)C1CCN(Cc2ccccc2)CC1`, it took 1800 nM to reach half-maximal inhibition against Plasmepsin II [3] (IC50).
In the case of `O=C(Nc1ccc(Cl)c(Cl)c1)Nc1cc(Cl)ccc1Oc1cc(Cl)c(Cl)cc1S(=O)(=O)O`, the Ki on Plasmepsin II [6] was 50 to 680 nM.
Consider `CCCCCc1ccc(C(=O)N(Cc2ccc(-c3ccccc3)cc2)C2CCN(Cc3ccccc3)CC2)cc1`, for which the IC50 at Plasmepsin II [3] is 70 to 90 nM.
`Clc1ccc2sc(SCCCc3cc4c(cc3OCCc3cccc5ccccc35)C3CCC4N3)nc2c1` (centres undefined): the IC50 against Plasmepsin II [4] was found to be 2000 nM; against Plasmepsin 4 [5], 10000 nM.
On Plasmepsin II [6], `O=C(Nc1ccc(Cl)c(C(F)(F)F)c1)Nc1cc(Cl)ccc1Oc1ccc(Cl)cc1S(=O)(=O)O` came in with a Ki of 50 to 680 nM.
On to `CC(=O)N1CC2CC(c3ccc(CCOc4cc(F)ccc4Br)cc3)=C(C(=O)N(C)CCc3ccccc3)C(C1)N2` (centres undefined), for which the IC50 at Plasmepsin II [3] is under 10 nM.
In the case of `COc1cc2c(cc1OCCc1cccc3ccccc13)C1CCC2N1` (centres undefined), the IC50 was 24000 nM against Plasmepsin II [4] and 81000 nM on Plasmepsin 4 [5].
Molecule `CC(=O)N1CC2CC(c3ccc(CCOc4ccccc4C(C)C)cc3)=C(C(=O)N(C)CCc3ccccc3)C(C1)N2` (centres undefined) registered an IC50 against Plasmepsin II [3] of 10 to 100 nM.
Same read-out and setting: as for `CC(=O)N1CC2CC(c3ccc(CCOc4ccc(C(C)(C)C)cc4C)cc3)=C(C(=O)N(C)CCc3ccccc3)C(C1)N2` (centres undefined), the figure is 10 to 100 nM.
The molecule `CC(C)CCCN(CCCC(C)C)CC(O)c1cc2c(c3ccccc13)CCCC2` (centres undefined) showed a concentration for half-maximal inhibition (IC50) on Plasmepsin II [8] of 19000 nM. This counts as double-digit micromolar.
Consider `CCCC(=O)NN`, for which the IC50 at Cathepsin D and on Plasmepsin II [1] was 1000 to 2500 nM throughout.
`NNC(=O)C(c1ccccc1)c1ccccc1`: the IC50 against Cathepsin D and against Plasmepsin II [1] was 1000 to 2500 nM each time.
Take `CC(C)(C)c1ccc(C(=O)N(Cc2ccc(-c3ccccc3)cc2)C2CCN(Cc3ccccc3)CC2)cc1`: at Plasmepsin II [3], the IC50 was over 20000 nM.
As to `CCCCCCc1ccc(S(=O)(=O)[C@@H]2[C@H](NCc3cccc(Br)c3)[C@@H]3CC[C@H]2N3)cc1`, the IC50 is 10 nM against Plasmepsin 4 [7] and at most 45 nM against Plasmepsin II [8].
Regarding `Cc1ccc(C)c(OCCCc2ccc(C3=C(C(=O)N(Cc4ccccc4Cl)C4CC4)CNCC3)cc2)c1C`, the IC50 at Plasmepsin II [3] fell in the range of 100 to 10000 nM.
In the case of `O=S(=O)(c1ccc(CCCCC2CCC2)cc1)C1C2CCC(N2)C1NCc1ccc2ccccc2c1` (centres undefined), the IC50 at Plasmepsin 4 [7] was 180 nM; against Plasmepsin II [8], 170 nM.
`c1ccc(-c2nnc(SCCOc3cc4c(cc3OCCc3cccc5ccccc35)C3CCC4N3)o2)cc1` (centres undefined) displayed an IC50 against Plasmepsin II [4] of 79000 nM.
As to `CCCCCCCc1ccc(S(=O)(=O)C2C3CCC(N3)C2NCc2ccc3ccccc3c2)cc1` (centres undefined), the values for the IC50 at Plasmepsin 4 [7] and at Plasmepsin II [8] were 210 nM and 50 nM, respectively.
Taken in the same sequence, the figures for `CCCCCCc1ccc(S(=O)(=O)C2C3CCC(N3)C2NCc2ccc3ccccc3c2)cc1` (centres undefined) were 50 nM and 130 nM.
`O=C(Nc1ccc(Cl)c(Cl)c1)Nc1cc(Cl)c(Oc2ccc(Cl)cc2)cc1S(=O)(=O)O` returned a Ki at Plasmepsin II [6] of 50 to 680 nM.
In turn, `CCCCCN(CCCCC)CC(O)c1cc2c(c3ccccc13)CCCC2` (centres undefined) had an IC50 on Plasmepsin II [8] of 5000 nM.
On to `CCc1ccc(C(=O)N(Cc2ccc(-c3ccccc3)cc2)C2CCN(Cc3ccccc3)CC2)cc1`, for which, on Plasmepsin II [3], half-maximal inhibition (IC50) required 15600 nM.
Consider `CC(=O)N1CC2CC(c3ccc(CCOc4ccccc4C(C)(C)C)cc3)=C(C(=O)N(C)CCc3ccccc3)C(C1)N2` (centres undefined), for which the IC50 against Plasmepsin II [3] fell in the range of 10 to 100 nM.
`O=C(C1=C(c2ccc(CCCOc3ccccc3Cl)cc2)CCNC1)N(Cc1ccccc1Cl)C1CC1`: at Plasmepsin II [3], the IC50 is under 100 nM.
`CCCCCc1ccc(N(CC2CCC(O)C(F)(F)C2)C(=O)Cc2ccc3ccccc3c2)cc1` (centres undefined) returned an IC50 against Plasmepsin II [4] of 7000 nM.
Take `O=C(Nc1ccc(Oc2ccc(Cl)cc2)c(Cl)c1)Nc1cc(C(F)(F)F)c(Cl)cc1S(=O)(=O)O`: the Ki on Plasmepsin II [6] fell in the range of 50 to 680 nM.
Consider `c1ccc(NNc2ccccc2)cc1` [HYDRAZOBENZENE], for which the IC50 at Cathepsin D and against Plasmepsin II [1] was 1000 to 2500 nM in each case.
Regarding `CCCCCc1ccc(Cn2nnc(CCN(CC)CC)c2-c2ccc(-c3ccc(OC)cc3)cc2)cc1`, half-maximal inhibition at Plasmepsin II [2] (IC50) required 5200 nM.
On to `CCCCCCCCCCc1ccc(S(=O)(=O)C2C3CCC(N3)C2NCc2ccc3ccccc3c2)cc1` (centres undefined), for which the values for the IC50 against Plasmepsin 4 [7] and at Plasmepsin II [8] were 3190 nM and 350 nM, respectively.
In the case of `O=C(Nc1cc(C(F)(F)F)ccc1Cl)Nc1cc(Cl)ccc1Oc1cc(Cl)c(Cl)cc1S(=O)(=O)O`, the inhibitory constant (Ki) at Plasmepsin II [6] lay in the range of 50 to 680 nM.
Regarding `O=S(=O)(c1ccc(CCCCC2CCCCC2)cc1)C1C2CCC(N2)C1NCc1ccc2ccccc2c1` (centres undefined), the IC50 came out at 760 nM against Plasmepsin 4 [7] and 380 nM on Plasmepsin II [8].
For `c1ccc2c(CCOc3cc4c(cc3OCCSc3nc5ccccc5s3)C3CCC4N3)cccc2c1` (centres undefined), the IC50 against Plasmepsin II [4] is 3000 nM; on Plasmepsin 4 [5], 15000 nM.
`CCCCOc1ccc(C(=O)N(Cc2ccc(-c3ccccc3)cc2)C2CCN(Cc3ccccc3)CC2)cc1` displayed an IC50 against Plasmepsin II [3] of 1700 nM.
Same read-out and setting: as for `CC(=O)N1CC2CC(c3ccc(CCOc4cccc(Cl)c4)cc3)=C(C(=O)N(C)CCc3ccccc3)C(C1)N2` (centres undefined), the figure is 100 to 10000 nM; as for `CC(=O)N1CC2CC(c3ccc(CCOc4ccc(C)cc4C(C)(C)C)cc3)=C(C(=O)N(C)CCc3ccccc3)C(C1)N2` (centres undefined), 100 to 10000 nM.
In the case of `NNC(=O)c1ccccc1[N+](=O)[O-]`, the IC50 against Cathepsin D and on Plasmepsin II [1] was 1000 to 2500 nM each time.
`CCCCc1ccc(S(=O)(=O)C2C3CCC(N3)C2NCc2ccc3ccccc3c2)cc1` (centres undefined): the results for the IC50 against Plasmepsin 4 [7] and against Plasmepsin II [8] were 1480 nM and 4190 nM, respectively.
`CC(=O)N1CC2CC(c3ccc(CCOc4cc(Cl)cc(Cl)c4)cc3)=C(C(=O)N(C)CCc3ccccc3)C(C1)N2` (centres undefined) yielded an IC50 against Plasmepsin II [3] of 10 to 100 nM.
`O=C(C1=C(c2ccc(CCCOc3c(F)ccc(F)c3F)cc2)CCNC1)N(Cc1ccccc1Cl)C1CC1` showed a half-maximal inhibitory concentration (IC50) at Plasmepsin II [3] of 100 to 10000 nM.
As to `CCCCCCCCc1ccc(S(=O)(=O)C2C3CCC(N3)C2NCc2ccc3ccccc3c2)cc1` (centres undefined), the concentration for half-maximal inhibition (IC50) on Plasmepsin 4 [7] came out at 430 nM; against Plasmepsin II [8], 70 nM.
For the molecule `O=C(Nc1cccc(C(F)(F)F)c1)Nc1ccc(Oc2ccc(Cl)cc2Cl)cc1S(=O)(=O)O`, on Plasmepsin II [6], the inhibition constant Ki was in the range of 50 to 680 nM.
For `CCCCCc1ccc(-n2nnc(CCN(CC)CC)c2-c2ccc(-c3ccc(OC)cc3)cc2)cc1`, the IC50 on Plasmepsin II [2] was 600 nM.
`CC(=O)N1CC2CC(c3ccc(CCOc4cc(Cl)ccc4Cl)cc3)=C(C(=O)N(C)CCc3ccccc3)C(C1)N2` (centres undefined) registered a 50% inhibitory concentration (IC50) on Plasmepsin II [3] of 10 to 100 nM.

The record behind these values is ChEMBL document CHEMBL4354799, “Exploiting Structural Dynamics To Design Open-Flap Inhibitors of Malarial Aspartic Proteases” (J Med Chem, 2019).
